Results as given in ChEMBL document CHEMBL1201862, “PubChem BioAssay data set” (2004).
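Assay format: 96-well plates, 48-hour exposure. GI50 is the concentration that inhibits growth by half.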 Active and inactive are the calls of the source. Cut-off read from the data, not from the text of the source: active = GI50 up to about 1.1 µM and inactive = higher.

Legend:
Assay in all cases: growth of human tumour cells (NCI), 48 h
NCI-H23 = test system: NCI-H23
Malme-3M = test system: Malme-3M
UACC-62 = test system: UACC-62
HL-60 = test system: HL-60
NCI-H460 = test system: NCI-H460
LXFL 529 = test system: LXFL 529
A549 = test system: A549
SK-MEL-28 = test system: SK-MEL-28
HT-29 = test system: HT-29
K562 = test system: K562
CCRF-CEM = test system: CCRF-CEM
SNB-75 = test system: SNB-75
SK-MEL-5 = test system: SK-MEL-5
U-251 = test system: U-251
MDA-N = test system: MDA-N
LOX IMVI = test system: LOX IMVI
NCI/ADR-RES = test system: NCI/ADR-RES
DU-145 = test system: DU-145
MCF7 = test system: MCF7
MDA-MB-231 = test system: MDA-MB-231

Measured: GI50

Oc1ccc(-c2n[nH]c(S)n2)cc1
inactive: NCI-H23 > 100 µM | Malme-3M > 100 µM | UACC-62 > 100 µM | HL-60 > 100 µM | NCI-H460 > 100 µM | LXFL 529 > 100 µM | A549 > 100 µM | SK-MEL-28 > 100 µM | HT-29 > 100 µM | K562 > 100 µM | CCRF-CEM > 100 µM | SNB-75 87.5 µM | SK-MEL-5 > 100 µM | U-251 > 100 µM

CCCNc1ncnc2[nH]ncc12
inactive: NCI-H23 > 100 µM | MDA-N > 100 µM | Malme-3M > 100 µM | UACC-62 > 100 µM | HL-60 > 100 µM | NCI-H460 > 100 µM | LOX IMVI > 100 µM | NCI/ADR-RES > 100 µM | DU-145 > 100 µM | A549 > 100 µM | SK-MEL-28 > 100 µM | HT-29 > 100 µM | K562 > 100 µM | CCRF-CEM > 100 µM | SNB-75 > 100 µM | MCF7 91.4 µM | SK-MEL-5 > 100 µM | U-251 > 100 µM | MDA-MB-231 > 100 µM

Cc1ccc(/C=C(\NC(=O)c2ccccc2)c2nc3ccccc3[nH]2)cc1
inactive: NCI-H23 59.6 µM | Malme-3M 45.5 µM | UACC-62 83.6 µM | HL-60 23.9 µM | NCI-H460 37.2 µM | LXFL 529 32.2 µM | A549 42.7 µM | SK-MEL-28 71.9 µM | HT-29 37.5 µM | SK-MEL-5 12.8 µM | U-251 41.2 µM

O=C(O)C12C3CCC(C3)C1(C(=O)O)C1CCC2C1 (stereo unspecified)
inactive: NCI-H23 > 100 µM | Malme-3M > 100 µM | UACC-62 > 100 µM | HL-60 39.6 µM | NCI-H460 81.3 µM | LOX IMVI 23.7 µM | LXFL 529 > 100 µM | A549 > 100 µM | SK-MEL-28 > 100 µM | HT-29 > 100 µM | K562 89.7 µM | CCRF-CEM 32.8 µM | SNB-75 > 100 µM | SK-MEL-5 > 100 µM

Clc1cccc(/C=c2\nc(-c3ccccc3)n3c2nc2ccccc23)c1
inactive: NCI-H23 72.8 µM | MDA-N > 100 µM | Malme-3M > 100 µM | UACC-62 21.5 µM | HL-60 > 100 µM | NCI-H460 > 100 µM | LOX IMVI > 100 µM | NCI/ADR-RES > 100 µM | DU-145 > 100 µM | A549 > 100 µM | SK-MEL-28 > 100 µM | HT-29 > 100 µM | K562 > 100 µM | CCRF-CEM > 100 µM | SNB-75 20 µM | MCF7 > 100 µM | SK-MEL-5 > 100 µM | U-251 60.4 µM | MDA-MB-231 42.7 µM

CCOP(=O)(OCC)/C(C#N)=C\c1cccc2ccccc12
inactive: NCI-H23 78.3 µM | MDA-N 40.6 µM | Malme-3M 42.7 µM | UACC-62 35.5 µM | HL-60 23 µM | NCI-H460 > 91.8 µM | LOX IMVI 20.9 µM | NCI/ADR-RES 52.7 µM | DU-145 57.9 µM | A549 > 100 µM | SK-MEL-28 28.2 µM | HT-29 > 66.1 µM | K562 31 µM | CCRF-CEM 30.1 µM | SNB-75 22.4 µM | MCF7 39.9 µM | SK-MEL-5 39.5 µM | U-251 > 67.5 µM | MDA-MB-231 40.6 µM

C=CC1(c2ccc3ccccc3c2)OCC(CC)(CC)CO1
inactive: NCI-H23 20.1 µM | MDA-N 29.3 µM | Malme-3M 28.2 µM | UACC-62 24.8 µM | HL-60 21.6 µM | NCI-H460 22.1 µM | LOX IMVI 18.4 µM | NCI/ADR-RES 30.1 µM | DU-145 45.1 µM | A549 33.9 µM | SK-MEL-28 39.4 µM | HT-29 20.3 µM | K562 25.1 µM | CCRF-CEM 20.3 µM | SNB-75 47.6 µM | MCF7 37.6 µM | SK-MEL-5 18.5 µM | U-251 21.5 µM | MDA-MB-231 15.8 µM

CC(C)(C)OC(=O)N1CCC2(CC1)C(=O)NCN2c1ccccc1
inactive: NCI-H23 > 100 µM | MDA-N > 100 µM | Malme-3M > 100 µM | UACC-62 > 100 µM | HL-60 92.7 µM | NCI-H460 > 100 µM | LOX IMVI > 100 µM | NCI/ADR-RES > 100 µM | DU-145 > 100 µM | A549 > 100 µM | SK-MEL-28 > 100 µM | HT-29 > 100 µM | K562 77.8 µM | CCRF-CEM > 100 µM | SNB-75 > 100 µM | MCF7 > 100 µM | SK-MEL-5 > 100 µM | U-251 > 100 µM | MDA-MB-231 > 100 µM

CC/C=C/C[C@H](O)[C@H]1C[C@H]2O[C@H](CC(=O)OC)C[C@H]2O1
inactive: NCI-H23 > 100 µM | MDA-N > 100 µM | Malme-3M > 100 µM | UACC-62 > 100 µM | HL-60 > 100 µM | NCI-H460 > 100 µM | LOX IMVI > 100 µM | NCI/ADR-RES > 100 µM | DU-145 > 100 µM | A549 > 100 µM | SK-MEL-28 > 100 µM | HT-29 > 100 µM | K562 > 100 µM | CCRF-CEM > 100 µM | SNB-75 > 100 µM | MCF7 > 100 µM | SK-MEL-5 > 100 µM | U-251 > 100 µM | MDA-MB-231 > 100 µM

Cc1cccc(N2C(=O)/C(=C/c3ccc(N(CCC#N)CCC#N)cc3C)N=C2c2cc([N+](=O)[O-])ccc2Cl)c1
inactive: NCI-H23 > 100 µM | Malme-3M > 100 µM | UACC-62 > 100 µM | HL-60 74 µM | NCI-H460 > 100 µM | LXFL 529 > 100 µM | A549 > 100 µM | SK-MEL-28 > 100 µM | HT-29 45.5 µM | K562 86.1 µM | CCRF-CEM 41.9 µM | SNB-75 > 100 µM | SK-MEL-5 > 100 µM | U-251 > 100 µM

CC12ON(P(=O)(c3ccccc3)c3ccccc3)C(C)(c3ccccc31)c1ccccc12
inactive: NCI-H23 > 100 µM | MDA-N > 100 µM | Malme-3M > 100 µM | UACC-62 > 100 µM | HL-60 55.6 µM | NCI-H460 67.5 µM | LOX IMVI > 100 µM | NCI/ADR-RES > 100 µM | DU-145 > 100 µM | A549 > 100 µM | SK-MEL-28 > 100 µM | HT-29 > 100 µM | K562 88.3 µM | CCRF-CEM 46.2 µM | SNB-75 > 100 µM | SK-MEL-5 > 100 µM | U-251 > 100 µM | MDA-MB-231 > 100 µM
active: MCF7 0.675 µM

CCOC(=O)CC[C@H](NC(=O)[C@H](N)Cc1ccc(N(CCCl)CCCl)cc1)C(=O)OCC
inactive: NCI-H23 3.08 µM | MDA-N 23.2 µM | Malme-3M 3.61 µM | UACC-62 2.68 µM | HL-60 5.3 µM | NCI-H460 2.61 µM | LOX IMVI 11.6 µM | NCI/ADR-RES 9.42 µM | DU-145 13.2 µM | A549 35.4 µM | SK-MEL-28 21.6 µM | HT-29 36.1 µM | K562 22.6 µM | CCRF-CEM 1.14 µM | SNB-75 12 µM | MCF7 20.6 µM | SK-MEL-5 10.4 µM | U-251 16.8 µM | MDA-MB-231 29.4 µM

Cc1ccc2[nH]c3c4c5ccccc5nc-4c[nH]c3c2c1
inactive: NCI-H23 10 µM | Malme-3M 19.1 µM | UACC-62 16.4 µM | HL-60 16.6 µM | NCI-H460 15.3 µM | LOX IMVI 17.2 µM | LXFL 529 19.2 µM | A549 17.2 µM | SK-MEL-28 17.7 µM | HT-29 11.6 µM | K562 12.6 µM | CCRF-CEM 15.3 µM | SNB-75 14.9 µM | U-251 14.8 µM

CN(C)/C=C/c1ccnc2c1C(=O)c1ccccc1C2=O
inactive: NCI-H23 2.48 µM | MDA-N 1.32 µM | Malme-3M 2.03 µM | UACC-62 1.38 µM | HL-60 10.9 µM | NCI-H460 2.35 µM | LOX IMVI 2.79 µM | NCI/ADR-RES 19 µM | DU-145 1.73 µM | A549 8.99 µM | SK-MEL-28 2.48 µM | HT-29 14.8 µM | K562 2.45 µM | CCRF-CEM 16.5 µM | SNB-75 5.33 µM | MCF7 4.46 µM | SK-MEL-5 1.28 µM | U-251 15.2 µM | MDA-MB-231 30.6 µM

CCOC(=O)C(=O)Nc1ccc([N+](=O)[O-])cc1C#N
inactive: NCI-H23 > 100 µM | Malme-3M > 100 µM | UACC-62 > 100 µM | HL-60 > 100 µM | NCI-H460 > 100 µM | LOX IMVI > 100 µM | LXFL 529 > 100 µM | A549 > 100 µM | SK-MEL-28 > 100 µM | HT-29 > 100 µM | K562 > 100 µM | CCRF-CEM > 100 µM | SK-MEL-5 > 100 µM | U-251 > 100 µM

Oc1c2ccccc2c2c3c(cccc13)N=N2 [SP-600125]
inactive: NCI-H23 23.8 µM | MDA-N 15 µM | Malme-3M 16.4 µM | UACC-62 14.6 µM | HL-60 42.1 µM | NCI-H460 9.86 µM | LOX IMVI 12.8 µM | NCI/ADR-RES 22.6 µM | DU-145 28.2 µM | A549 14.9 µM | SK-MEL-28 37.6 µM | HT-29 25.9 µM | K562 48.6 µM | CCRF-CEM 16.1 µM | SNB-75 16.9 µM | MCF7 49 µM | SK-MEL-5 14.6 µM | U-251 23.1 µM | MDA-MB-231 65.3 µM
